Assay [1] addresses Phosphatidylinositol 4-phosphate 5-kinase type-1 alpha (Homo sapiens) (UniProt Q99755). Kind of assay: Inhibition of recombinant human PIP5K1alpha expressed in Escherichia coli BL21 (DE3) using phosphatidylinositol-4-phosphate as substrate at 10 uM preincubated for 10 mins followed by substrate and ATP addition and further incubated under dark condition with constant shaking for 30 mins by capillary electrophoresis. The conditions noted are these: time 40.0 min.

For assay [2], the system named is LNCaP. The assay is described as follows: Antiproliferative activity against human LNCaP cells assessed as inhibition of cell growth by measuring reduction in cell confluence at 20 uM measured every 2 hrs for 48 hrs by IncuCyte live-cell imaging analysis. In kind it is functional, cell-based.
Assay [3] has as its system DU-145. The assay is described as follows: Antiproliferative activity against human DU-145 cells assessed as inhibition of cell growth by measuring reduction in cell confluence at 1 to 5 uM measured every 2 hrs for 72 hrs by IncuCyte live-cell imaging analysis. The assay is classed as functional, cell-based. The settings on record: dose 1-5 µM.
Assay [4] deals with PC-3. Kind of assay: Induction of morphological changes in human PC-3 cells assessed as change in cell shape at 10 uM measured after 0 to 72 hrs by IncuCyte live-cell imaging based phase contrast microscopic analysis. In kind it is functional. The settings on record: time 0-72 hrs.
The subject of assay [5] is LNCaP. The assay is described as follows: Antiproliferative activity against human LNCaP cells assessed as inhibition of cell growth by measuring negative AUC values at 20 uM measured after 48 hrs by IncuCyte live-cell imaging analysis. In kind it is functional, cell-based.
Assay [6] has as its system DU-145. Kind of assay: Antiproliferative activity against human DU-145 cells assessed as inhibition of cell growth by measuring reduction in cell confluence at 10 to 20 uM measured every 2 hrs for 72 hrs by IncuCyte live-cell imaging analysis. In kind it is functional, cell-based. The settings on record: dose 10-20 µM.
The test system of assay [7] is LNCaP. The assay is described as follows: Antiproliferative activity against human LNCaP cells assessed as inhibition of cell growth by measuring reduction in cell confluence at 1 to 5 uM measured every 2 hrs for 72 hrs by IncuCyte live-cell imaging analysis. The assay is classed as functional, cell-based. The conditions noted are these: dose 1-5 µM.
In assay [8] the test system is LNCaP. Kind of assay: Induction of morphological changes in human LNCaP cells assessed as change in cell shape at 10 uM measured after 0 to 72 hrs by IncuCyte live-cell imaging based phase contrast microscopic analysis. The assay is classed as functional. The settings on record: time 0-72 hrs.
Assay [9] relates to PC-3. Kind of assay: Antiproliferative activity against human PC-3 cells assessed as inhibition of cell growth by measuring reduction in cell confluence at 10 to 20 uM measured every 2 hrs for 72 hrs by IncuCyte live-cell imaging analysis. The assay is classed as functional, cell-based. The conditions noted are these: dose 10-20 µM.
The test system of assay [10] is DU-145. The assay is described as follows: Induction of morphological changes in human DU-145 cells assessed as change in number of cells at 10 uM measured after 0 to 72 hrs by IncuCyte live-cell imaging based phase contrast microscopic analysis. The conditions noted are these: time 0-72 hrs. In kind it is functional.
In assay [11] the test system is LNCaP. The assay is described as follows: cells. The settings on record: Homo sapiens, 72 h.
Description: Antiproliferative activity against human LNCaP cells assessed as inhibition of cell growth measured after 72 hrs by IncuCyte live-cell imaging analysis
Assay [12] relates to PC-3. The assay is described as follows: Induction of morphological changes in human PC-3 cells assessed as change in number of cells at 10 uM measured after 0 to 72 hrs by IncuCyte live-cell imaging based phase contrast microscopic analysis. In kind it is functional. The settings on record: time 0-72 hrs.
In assay [13] the test system is DU-145. Kind of assay: Induction of morphological changes in human DU-145 cells assessed as change in cell shape at 10 uM measured after 0 to 72 hrs by IncuCyte live-cell imaging based phase contrast microscopic analysis. In kind it is functional. The settings on record: time 0-72 hrs.
Assay [14] relates to DU-145. Kind of assay: cells. The settings on record: Homo sapiens, DU-145, 72 h.
Description: Antiproliferative activity against human DU-145 cells assessed as inhibition of cell growth measured after 72 hrs by IncuCyte live-cell imaging analysis
For assay [15], the system named is PC-3. The assay is described as follows: cells. The settings on record: Homo sapiens, PC-3, 72 h.
Description: Antiproliferative activity against human PC-3 cells assessed as inhibition of cell growth measured after 72 hrs by IncuCyte live-cell imaging analysis
The test system of assay [16] is LNCaP. The assay is described as follows: Induction of morphological changes in human LNCaP cells assessed as change in number of cells at 10 uM measured after 0 to 72 hrs by IncuCyte live-cell imaging based phase contrast microscopic analysis. In kind it is functional. The settings on record: time 0-72 hrs.
For assay [17], the system named is DU-145. Kind of assay: Antiproliferative activity against human DU-145 cells assessed as inhibition of cell growth by measuring negative AUC values at 20 uM measured after 48 hrs by IncuCyte live-cell imaging analysis. The assay is classed as functional, cell-based.
The subject of assay [18] is PC-3. The assay is described as follows: Antiproliferative activity against human PC-3 cells assessed as inhibition of cell growth by measuring negative AUC values at 20 uM measured after 48 hrs by IncuCyte live-cell imaging analysis. In kind it is functional, cell-based.
Assay [19] deals with LNCaP. Kind of assay: Antiproliferative activity against human LNCaP cells assessed as inhibition of cell growth by measuring reduction in cell confluence at 10 to 20 uM measured every 2 hrs for 72 hrs by IncuCyte live-cell imaging analysis. In kind it is functional, cell-based. The settings on record: dose 10-20 µM.
Assay [20] deals with Phosphatidylinositol 4-phosphate 5-kinase type-1 alpha (Homo sapiens) (UniProt Q99755). The assay is described as follows: Inhibition of recombinant human PIP5K1alpha expressed in Escherichia coli BL21 (DE3) using phosphatidylinositol-4-phosphate as substrate at 1 to 10 uM preincubated for 10 mins followed by substrate and ATP addition and further incubated under dark condition with constant shaking for 30 mins by capillary electrophoresis. The settings on record: dose 1-10 µM, time 40.0 min.

Assay [21] has as its target Casein kinase 2 (Homo sapiens, UniProt P67870+P68400+P19784+Q8NEV1). Kind of assay: Inhibition of CK2 (unknown origin) using RRRDDDSDDD-EDANS as substrate measured after 15 mins by capillary electrophoresis. The assay is classed as protein assay.
For assay [22], the system named is LNCaP. Kind of assay: Antiproliferative activity against human LNCaP cells assessed as inhibition of cell growth by measuring reduction in cell confluence at 5 to 20 uM measured every 2 hrs for 48 hrs by IncuCyte live-cell imaging analysis. The assay is classed as functional, cell-based. The settings on record: dose 5-20 µM.

pEC50: −log10 of the molar value. Active and inactive are the calls of the source. The rule behind the calls is not given here.

Consider six compounds from ChEMBL document CHEMBL5550127, “1,2,3-Triazole-totarol conjugates as potent PIP5K1α lipid kinase inhibitors” (Bioorg Med Chem, 2024).

Sequence of Phosphatidylinositol 4-phosphate 5-kinase type-1 alpha (Homo sapiens) (Q99755 whole entry): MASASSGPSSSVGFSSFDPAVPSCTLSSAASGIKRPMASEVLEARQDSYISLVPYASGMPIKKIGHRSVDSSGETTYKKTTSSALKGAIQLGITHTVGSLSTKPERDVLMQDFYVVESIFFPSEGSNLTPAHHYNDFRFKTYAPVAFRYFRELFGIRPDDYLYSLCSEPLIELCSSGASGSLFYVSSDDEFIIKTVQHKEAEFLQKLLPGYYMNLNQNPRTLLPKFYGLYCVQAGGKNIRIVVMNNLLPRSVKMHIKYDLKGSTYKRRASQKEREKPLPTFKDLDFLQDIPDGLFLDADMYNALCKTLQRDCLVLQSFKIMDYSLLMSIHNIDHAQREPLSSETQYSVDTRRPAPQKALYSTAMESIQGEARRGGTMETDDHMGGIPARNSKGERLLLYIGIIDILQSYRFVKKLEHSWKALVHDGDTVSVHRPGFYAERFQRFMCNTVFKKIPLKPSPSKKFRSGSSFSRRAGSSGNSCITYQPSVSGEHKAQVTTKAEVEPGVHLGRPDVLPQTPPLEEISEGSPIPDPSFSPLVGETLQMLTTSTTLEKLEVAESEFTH

Consider `CC(C)c1c(O)ccc2c1CC[C@H]1C(C)(C)CCC[C@]21C`, for which the inhibition entry in [1] is “inactive”. Further, the result in assay [2] was inactive.
What is called pEC50 is −log10 of the EC50, conventionally taken in molar units. A higher pEC50 goes with a low EC50. For `CC(C)c1c(OCc2cn(C3=CCC4C(=O)N(CCN(C)C)C(=O)c5cccc3c54)nn2)ccc2c1CC[C@H]1C(C)(C)CCC[C@]21C` (stereo partly drawn), the outcome in assay [3] and in [7] was inactive. Moreover, the result in [4], in assay [5], in [6], in assay [8], in [9] and in [10] was Active. In addition, the outcome in assay [12], in assay [13], in [16], in assay [17], in assay [18] and in assay [19] was Active. In addition, the pEC50 is 4.80 in [11], 5.07 in assay [14] and 5.31 in assay [15].
As to `CCCCCCCCCCCn1cc(COc2ccc3c(c2C(C)C)CC[C@H]2C(C)(C)CCC[C@]32C)nn1`, the inhibition result in assay [20] was “inactive”.
The term IC50 denotes the concentration needed to halve the response being measured. In turn, `CC(C)c1c(OCc2cn(-c3cccc([N+](=O)[O-])c3)nn2)ccc2c1CC[C@H]1C(C)(C)CCC[C@]21C` came in with an IC50 in assay [21] of 0.91 µM.
Consider `CN(C)CCN1C(=O)c2cccc3c(-n4cc(CO)nn4)ccc(c23)C1=O`, for which the result in assay [22] was Active.
As to `COc1ccc(-n2cc(COc3ccc4c(c3C(C)C)CC[C@H]3C(C)(C)CCC[C@]43C)nn2)cc1`, the IC50 in assay [21] is 4.1 µM.
